Data set [1] deals with T. cruzi epimastigotes, NINOA strain. Kind of data set: Growth inhibition of T. cruzi epimastigotes, NINOA strain. The following applies: Trypanosoma cruzi, 120 h, read-out: Epi NINOA IC50. The data set is classed as cell-based. The method, then:
(§1) Epimastigotes from T. cruzi strains NINOA and INC-5 were cultured in BHI (brain heart infusion broth, 89%) axenic medium, as reported in [26], at an initial concentration of 1 × 10^6 parasites/mL, at 28 °C, supplemented with 10% foetal bovine serum and 1% sodium penicillin-streptomycin. […] On the last day, the absorbance of the cultures was measured and related to the control. All measurements were carried out in triplicate. No toxic effect was attributable to DMSO. Since parasite growth is exponential, the data were analysed according to a first order equation, and the respective growth constant (k), corresponding to the slope, was calculated for controls and parasites treated with different drug concentrations. From these measurements, percentage growth inhibition (%GI) and half-maximal inhibitory concentration (IC50) values were calculated.

Data set [2] concerns T. cruzi epimastigotes, INC-5 strain. Nature of the data set: Growth inhibition of T. cruzi epimastigotes, INC-5 strain. The data set is classed as cell-based, Trypanosoma cruzi. To be noted: Trypanosoma cruzi, 120 h, read-out: Epi INC-5 IC50. The method, then:
as §1

In data set [3] the test system is T. cruzi trypomastigotes, INC-5 strain. Kind of data set: microbe, parasite or virus in culture. The data set is classed as cell-based. The following applies: Trypanosoma cruzi, read-out: Trypo INC-5 LC50 (half-maximal lytic concentration). As for the experimental part:
(§2) Those compounds with the lowest IC50 values in the epimastigote studies of each strain were evaluated in trypomastigotes. For this purpose, bloodstream trypomastigotes of INC-5 and NINOA strains were used for peritoneal injection into 6−8-week-old CD1 mice. The peak of parasitemia was achieved after 4–6 weeks, at which time parasitised blood samples were obtained by cardiac puncture using sodium heparin as an anticoagulant and diluted to a concentration of 1 × 10^6 trypomastigotes/mL. 10 µL of each of the dilutions of the study compounds and Bzn, with these being placed in a 96-well plate, and 90 µL of infected blood was added, providing a final volume of 100 µL per well. The microplates were incubated at 4 °C for 24 h, and concentrations of 20 µM, 10 µM, and 5 µM of each compound were considered in these experiments. Each evaluation was performed in triplicate. Wells with untreated blood trypomastigotes were used as a negative lysis control and Bzn as a positive control. Then, the degree of lysis of trypomastigotes was determined by their reduction in number using an optical microscope according to the Brener–Pizzi method. For this purpose, 5 μL of blood was placed between a slide and a 13 × 13 coverslip. Mobile trypomastigotes were counted in 15 microscope fields at 40× magnification. Quantification of the degree of lysis for each case was expressed as a percentage considering the number of viable trypomastigotes with respect to the negative control. The half-maximal lytic concentration (LC50) was determined by linear regression. The experiments were carried out in accordance with the recommendations and approval of the local Ethics and Research Committee (Approval number: ENCB/CEI/078/2020).

The subject of data set [4] is T. cruzi trypomastigotes, NINOA strain. Kind of data set: microbe, parasite or virus in culture. Format: cell-based. The following applies: Trypanosoma cruzi, read-out: Trypo NINOA LC50 (half-maximal lytic concentration). As for the experimental part: as §2
The subject of data set [5] is J774 murine macrophages. Nature of the data set: Cytotoxicity on J774 macrophages (MTT). Format: cell-based. As for the experimental part:
Cytotoxicity assays for the compounds selected for their trypanocidal activity were performed on J774 macrophage cells using the MTT method. For this purpose, 50,000 cells/well resuspended in RPMI medium and 2% foetal bovine serum were seeded in a 96-well plate and incubated for 24 h at 37 °C. […] After 24 h of incubation, the existing culture medium was replaced in the plate with fresh culture medium along with […] each of the compound dilutions (100 to 1.25 μM) and Bzn to a final volume of 100 µL per well. This plate was then incubated in 5% CO2 for 24 h at 37 °C. The controls used were cells with medium as a positive control and cells without culture medium as a negative control. After the 24 h incubation, the morphology of the macrophages was observed under a microscope and then the culture medium was removed again and the MTT solution (5 mg/mL) was added. After 1 h incubation at 37 °C, the absorbance at 570 nm was recorded on an Elisa Epoch reader. The following formula was used to calculate the % cytotoxicity: %cytotoxicity = (100 − (mean number of cells with treatment/cells without treatment) × 100).

Setting [6] is: epimastigotes, NINOA strain, five days, means of three independent experiments.
The mark [7] stands for this setting: epimastigotes, INC-5 strain, five days, means of three independent experiments.
[8] abbreviates: bloodstream trypomastigotes, INC-5 strain, 24 h at 4 °C.
Where [9] appears, read: bloodstream trypomastigotes, NINOA strain, 24 h at 4 °C.
Where [10] appears, read: Mus musculus, J774, 24 h, J774 macrophages, MTT, 24 h, read-out: J774 IC50.

The results in this text go back to article PMC9228152, “New Amino Naphthoquinone Derivatives as Anti-Trypanosoma cruzi Agents Targeting Trypanothione Reductase” (Pharmaceutics, 2022).

Where two headings read alike, the source gives them in different places. A value given as a limit tells only on which side of the number the result lay.

The IC50 is the concentration that gives 50% inhibition. As for `O=C1C=C(NCCN2CCOCC2)C(=O)c2ccccc21` [Compound 2a, 2-((2-Morpholinoethyl)amino)naphthalene-1,4-dione], the values for the 50% inhibitory concentration (IC50) in data set [1] (setting [6]) and in data set [2] (setting [7]) were 1100 ± 120 nM and 3060 ± 10 nM, respectively. Further, the LC50 in data set [3] (setting [8]) and in data set [4] (setting [9]) was above 100 µM each time.

As for `O=C1C(Cl)=C(NCCN2CCOCC2)C(=O)c2ccccc21` [Compound 2b, 2-Chloro-3-((2-morpholinoethyl)amino)naphthalene-1,4-dione], the figures for the IC50 in data set [1] (setting [6]) and in data set [2] (setting [7]) were 1100 ± 50 nM and 2980 ± 200 nM, respectively. In addition, the LC50 in data set [3] (setting [8]) and in data set [4] (setting [9]) was above 100 µM throughout.

As for `O=C1C(Br)=C(NCCN2CCOCC2)C(=O)c2ccccc21` [Compound 2c, 2-Bromo-3-((2-morpholinoethyl)amino)naphthalene-1,4-dione], the IC50 worked out at 1140 ± 60 nM in data set [1] (setting [6]) and 2220 ± 40 nM in data set [2] (setting [7]). Besides, the LC50 in data set [3] (setting [8]) and in data set [4] (setting [9]) was above 100 µM each time.

As to `O=C1C=C(N2CCN(C3CCCC3)CC2)C(=O)c2ccccc21` [Compound 2d, 2-(4-Cyclopentylpiperazin-1-yl)naphthalene-1,4-dione], the IC50 worked out at 1120 ± 40 nM in data set [1] (setting [6]) and 5040 ± 260 nM in data set [2] (setting [7]). Besides, the LC50 is 87.3 ± 5.32 µM in data set [3] (setting [8]) and above 100 µM in data set [4] (setting [9]).

Turning to `O=C1C(Cl)=C(N2CCN(C3CCCC3)CC2)C(=O)c2ccccc21` [Compound 2e, 2-Chloro-3-(4-cyclopentylpiperazin-1-yl)naphthalene-1,4-dione], the 50% inhibitory concentration (IC50) in data set [1] (setting [6]) worked out at 430 ± 150 nM. For the same compound, the LC50 in data set [3] (setting [8]) and in data set [4] (setting [9]) was above 100 µM in each case.

Consider `O=C1C(Br)=C(N2CCN(C3CCCC3)CC2)C(=O)c2ccccc21` [Compound 2f, 2-Bromo-3-(4-cyclopentylpiperazin-1-yl)naphthalene-1,4-dione], for which the 50% inhibitory concentration (IC50) came out at 1150 ± 90 nM in data set [1] (setting [6]) and 1460 ± 30 nM in data set [2] (setting [7]). For the same compound, the LC50 is above 100 µM in data set [3] (setting [8]) and 97.9 ± 2.13 µM in data set [4] (setting [9]).

What is called melting point is the temperature of the solid-liquid transition. `O=C1C=C(N2CCC(N3CCOCC3)CC2)C(=O)c2ccccc21` [Compound 2g, 2-(4-Morpholinopiperidin-1-yl)naphthalene-1,4-dione] gave a melting point of 151 to 153 °C. In addition, the IC50 in data set [1] (setting [6]) stood at 7050 ± 950 nM. Also, the IC50 in data set [2] (setting [7]) amounted to 8450 ± 350 nM.

In turn, `O=C1C(Cl)=C(N2CCC(N3CCOCC3)CC2)C(=O)c2ccccc21` [Compound 2h, 2-Chloro-3-(4-morpholinopiperidin-1-yl)naphthalene-1,4-dione] came in with a melting point of 145 to 146 °C. In addition, the concentration for half-maximal inhibition (IC50) in data set [1] (setting [6]) is 6400 ± 20 nM. In data set [2] (setting [7]), the half-inhibitory concentration (IC50) was found to be 6600 ± 80 nM.

The compound `O=C1C(Br)=C(N2CCC(N3CCOCC3)CC2)C(=O)c2ccccc21` [Compound 2i, 2-Bromo-3-(4-morpholinopiperidin-1-yl)naphthalene-1,4-dione] showed a melting point of 148 to 149 °C. Also, the half-maximal inhibitory concentration (IC50) in data set [1] (setting [6]) stood at 10100 ± 50 nM. Also, the IC50 in data set [2] (setting [7]) was 1740 ± 20 nM.

The compound `O=C(NC1CCN(C2=C(Cl)C(=O)c3ccccc3C2=O)CC1)c1ccccc1Br` [Compound 7a, 2-Bromo-N-(1-(3-chloro-1,4-dioxo-1,4-dihydronaphthalen-2-yl)piperidin-4-yl)benzamide] yielded a melting point of 197 to 198 °C. Also, the IC50 in data set [1] (setting [6]) amounted to 6410 ± 20 nM. Moreover, the IC50 in data set [2] (setting [7]) was found to be 2460 ± 80 nM.

Take `O=C(NC1CCN(C2=C(Cl)C(=O)c3ccccc3C2=O)CC1)c1ccc([N+](=O)[O-])cc1` [Compound 7b, N-(1-(3-chloro-1,4-dioxo-1,4-dihydronaphthalen-2-yl)piperidin-4-yl)-4-nitrobenzamide]: the values for the concentration for half-maximal inhibition (IC50) in data set [1] (setting [6]) and in data set [2] (setting [7]) were 770 ± 210 nM and 2230 ± 60 nM, respectively. Moreover, the LC50 in data set [3] (setting [8]) is above 100 µM; in data set [4] (setting [9]) it was 80.3 ± 4.03 µM.

Take `O=C(NC1CCN(C2=C(Cl)C(=O)c3ccccc3C2=O)CC1)c1cccc(Cl)c1` [Compound 7c, 3-Chloro-N-(1-(3-chloro-1,4-dioxo-1,4-dihydronaphthalen-2-yl)piperidin-4-yl)benzamide]: the results for the half-maximal inhibitory concentration (IC50) in data set [1] (setting [6]), in data set [2] (setting [7]) and in data set [5] (setting [10]) were 520 ± 40 nM, 1140 ± 70 nM and around 25 µM, respectively. Further, the LC50 in data set [3] (setting [8]) is above 100 µM; in data set [4] (setting [9]), 68.4 ± 6.3 µM.

In the case of `O=C(NC1CCN(C2=C(Cl)C(=O)c3ccccc3C2=O)CC1)c1ccc(CCl)cc1` [Compound 7d, N-(1-(3-chloro-1,4-dioxo-1,4-dihydronaphthalen-2-yl)piperidin-4-yl)-4-(chloromethyl)benzamide], the half-maximal inhibitory concentration (IC50) was found to be 1250 ± 60 nM in data set [1] (setting [6]) and 2300 ± 110 nM in data set [2] (setting [7]). Also, the LC50 in data set [3] (setting [8]) and in data set [4] (setting [9]) was above 100 µM in each case.

Take `Cc1cc(C)cc(C(=O)NC2CCN(C3=C(Cl)C(=O)c4ccccc4C3=O)CC2)c1` [Compound 7e, N-(1-(3-chloro-1,4-dioxo-1,4-dihydronaphthalen-2-yl)piperidin-4-yl)-3,5-dimethylbenzamide]: the melting point fell in the range of 206 to 208 °C. Besides, the IC50 in data set [1] (setting [6]) came out at 4450 ± 60 nM. Further, the IC50 in data set [2] (setting [7]) turned out to be 5600 ± 30 nM.

For `O=C(NC1CCN(C2=C(Cl)C(=O)c3ccccc3C2=O)CC1)c1cc([N+](=O)[O-])cc([N+](=O)[O-])c1` [Compound 7f, N-(1-(3-chloro-1,4-dioxo-1,4-dihydronaphthalen-2-yl)piperidin-4-yl)-3,5-dinitrobenzamide], the IC50 in data set [1] is 990 ± 10 nM; in data set [2] it was 1840 ± 60 nM; in data set [5] (Mus musculus, J774, 24 h, read-out: J774 IC50, J774 macrophages, MTT, 24 h), around 25 µM. Further, the figures for the LC50 in data set [3] (24 h) and in data set [4] (24 h) were 98.6 ± 8.2 µM and 70.9 ± 7.31 µM, respectively.

With `O=C(NC1CCN(C2=C(Cl)C(=O)c3ccccc3C2=O)CC1)c1cc(F)cc(Cl)c1` [Compound 7g, 3-Chloro-N-(1-(3-chloro-1,4-dioxo-1,4-dihydronaphthalen-2-yl)piperidin-4-yl)-5-fluorobenzamide], the half-inhibitory concentration (IC50) in data set [1] (setting [6]) amounted to 3550 ± 20 nM; in data set [2] (setting [7]) it was 2570 ± 40 nM. The LC50 in data set [3] (setting [8]) and in data set [4] (setting [9]) was above 100 µM in each case.

In the case of `COc1ccc(C(=O)NC2CCN(C3=C(Cl)C(=O)c4ccccc4C3=O)CC2)cc1F` [Compound 7h, N-(1-(3-chloro-1,4-dioxo-1,4-dihydronaphthalen-2-yl)piperidin-4-yl)-3-fluoro-4-methoxybenzamide], the half-maximal inhibitory concentration (IC50) in data set [1] (setting [6]) was 840 ± 110 nM; in data set [2] (setting [7]), 1350 ± 10 nM; in data set [5] (J774 macrophages, MTT, 24 h, read-out: J774 IC50), 22 µM; in data set [5] (setting [10]) it was around 25 µM. The LC50 came out at 94.7 ± 5.21 µM in data set [3] (setting [8]) and 78.6 ± 3.91 µM in data set [4] (setting [9]).

Consider `O=C1C(Cl)=C(N2CCC(NC(=O)c3ccc(C(F)(F)F)cc3[N+](=O)[O-])CC2)C(=O)c2ccccc21` [Compound 7i, N-(1-(3-chloro-1,4-dioxo-1,4-dihydronaphthalen-2-yl)piperidin-4-yl)-2-nitro-4-(trifluoromethyl)benzamide], for which the results for the concentration for half-maximal inhibition (IC50) in data set [1] (setting [6]) and in data set [2] (setting [7]) were 1090 ± 10 nM and 3350 ± 50 nM, respectively. In addition, the LC50 in data set [3] (setting [8]) was above 100 µM; in data set [4] (setting [9]), 90.5 ± 6.58 µM.
